Measured values taken from patent publication EP0372889A1, “Doxorubicin solutions” (Bristol-Myers Squibb Company, priority 1988, dated 1990).
Structures can show the parent of a compound that is named as a salt. Where two headings read alike, the source gives them in different places.

Assays:
[1] = assay type: physicochemical
Source text: It is also necessary for optimum stability of the solutions, especially at elevated temperatures which may be encountered at some time during the life of the product, e.g. during shipping, to utilize an antioxidant. We have tested a number of antioxidants including α-tocopherol, tert-butylhydroquinone (TBHQ), sodium formaldehyde bisulfite, butylated hydroxy anisole (BHA), butylated hydroxy toluene (BHT), sodium bisulfite and propyl gallate. […] This finding was disclosed and claimed in our EP-A-88111434.2 and in co-pending U.S. application Serial Number 246,602 filed September 20, 1988 and incorporated by reference herein in their entirety. […] Generally, an amount of sodium acetone bisulfite is employed in the range of about 0.1 to 20 mg/ml with about 2 mg/ml being most preferred.
Despite reports of potency losses of doxorubicin HCl solutions via photolytic degradation and adsorption to container walls, we have not noted any significant loss of potency due to container adsorption or sensitivity to normal room light with our solutions. Glass vials may conveniently be used as the container.
As an example of a stable non-aqueous solution of doxorubicin, 20 mg/ml of doxorubicin hydrochloride, 0.2 mg/ml citric acid (anhydrous), 2.0 mg/ml of sodium acetone bisulfite and a solvent medium consisting of deaerated propylene glycol/water (90:10 v/v) are added to a Type 1 flint vial, the vial is purged with nitrogen and then sealed with a suitable teflon-coated stopper. […] Substantially equivalent results are obtained when 1,2-dihydroxybutane and 1,3-dihydroxypropane solvent systems are used.

[2] = cited from earlier work
[3] = Solubility of doxorubicin HCl in non-aqueous solvents; assay type: physicochemical; details: for solubility: organic solvent or mixture
Method: Doxorubicin HCl at room temperature has a solubility of less than 5 mg/ml in propylene glycol, 1,2-dihydroxybutane and 1,3-dihydroxypropane. […] Solubility of doxorubicin HCl can be increased to about 20 mg/ml in the above-mentioned solvents by addition of 5-10% (v/v) water.

Compound: O=S(=O)(O)CO [sodium formaldehyde bisulfite]
- stabilization of doxorubicin solutions by antioxidant [1]: resulted in the desired stability

Compound: CC(C)(C)c1cc(O)ccc1O [tert-butylhydroquinone]
- stabilization of doxorubicin solutions by antioxidant ([1]; elevated temperatures as well as room temperature (25°C) or below): resulted in the desired stability

Compound: Cc1c(C)c2c(c(C)c1O)CCC(C)(CCCC(C)CCCC(C)CCCC(C)C)O2 (stereo not drawn) [α-tocopherol]
- stabilization of doxorubicin solutions by antioxidant [1]: resulted in the desired stability

Compound: COc1cccc2c1C(=O)c1c(O)c3c(c(O)c1C2=O)C[C@@](O)(C(=O)CO)C[C@@H]3O[C@H]1C[C@H](N)[C@H](O)[C@H](C)O1 [Doxorubicin HCl, doxorubicin hydrochloride]
- potency retained ([1]; 20 mg/ml, 0.2 mg/ml citric acid, 2.0 mg/ml sodium acetone bisulfite, propylene glycol/water (90:10 v/v), nitrogen purged, 2 weeks at 40°C, 20160 min): 97.2%
- potency retained ([1]; same solution, 4 weeks at 40°C, 40320 min): 93.4%
- potency retained ([1]; same solution, 12 weeks at 40°C, 120960 min): 88.2%
- acceptable shelf-life (≦10% potency loss) ([1]; same solution, 37°C): at least four
- acceptable shelf-life (≦10% potency loss) ([1]; same solution, room temperature): at least 18 months
- stable ([2]; commercial preservative-free ready-to-use aqueous solution, 4°C, manufacturer): 18 months
- undesirable and potentially toxic degradation products ([2]; commercial ready-to-use aqueous solution, at the end of 18 months at 4°C, 788400 min): up to 10%
- remains stable ([2]; reconstituted solution in 0.9% NaCl solution, room temperature or 5°C, Ketcyhum, et al.): seven
- chemical stability of solutions ([3]; glycerol formal, 2-pyrrolidinone and 1-methyl-2-pyrrolidinone): chemically unstable
- solubility ([3]; glycerol formal, pyrrolidinones, glycerol formal, 2-pyrrolidinone and 1-methyl-2-pyrrolidinone, read-out: solution concentration produced): ≥ 5000 µg/mL
- solubility ([3]; glycols with 5-10% water, propylene glycol, 1,2-dihydroxybutane, 1,3-dihydroxypropane with addition of 5-10% (v/v) water, read-out: Solubility): ~20000 µg/mL
- solubility ([3]; propylene glycol, butanediol, propanediol, room temperature, in propylene glycol, 1,2-dihydroxybutane and 1,3-dihydroxypropane, read-out: solubility): < 5000 µg/mL
- solubility ([3]; propylene glycol, butanediol, propanediol, same solvents, short-term (0.5-1 hour) warming (60-80°C) with vigorous stirring, read-out: solubility): ~10000 µg/mL
- physical stability of solution on cold storage ([3]; stored at 4°C to -20°C, seeding with crystalline doxorubicin HCl does not affect crystallization): remains in solution
- potency loss ([3]; upon short-term (0.5-1 hour) warming (60-80°C) in propylene glycol, 1,2-dihydroxybutane, 1,3-dihydroxypropane): no potency loss
- solubility ([3]; various organic solvents, with heating, polyethylene glycols, ethanol, benzyl alcohol, dimethylisosorbide, ethyl lactate, Solketol, Cremophors, Pluronics, read-out: Solubilities): < 5000 µg/mL
